Holding throughout (format): cell-based
One data set concerns Molt 3. The experiment in a line: Cytotoxicity MTS, leukemias/lymphomas, Molt 3. As to conditions: 4-Parameter Curve Fit, NA = not active, read-out: Cytotoxicity IC50 ALL (Acute lymphobalstic) Molt 3.
The next data set deals with MC116. The experiment in a line: Cytotoxicity MTS, leukemias/lymphomas, MC116. As to conditions: 4-Parameter Curve Fit, NA = not active, read-out: Cytotoxicity IC50 Lymphoma (undifferentiated) MC116.
For a further data set, the system named is P388. Briefly: Cytotoxicity of spisulosine analogs, P388 (after Berjeron et al). The note with it: P388; methodology after Berjeron et al; NA=not active; read-out: Cytotoxicity IC50 P388.
In data set [1] the test system is A549. Briefly: Cytotoxicity of spisulosine analogs, A549 (after Berjeron et al). The note with it: A549; methodology after Berjeron et al; NA=not active; read-out: Cytotoxicity IC50 A549.
A further data set deals with HT29. Briefly: Cytotoxicity of spisulosine analogs, HT29 (after Berjeron et al). As to conditions: HT29; methodology after Berjeron et al; NA=not active; read-out: Cytotoxicity IC50 HT29.
Another data set has as its system MEL28. The experiment in a line: Cytotoxicity of spisulosine analogs, MEL28 (after Berjeron et al). As to conditions: MEL28; methodology after Berjeron et al; NA=not active; read-out: Cytotoxicity IC50 MEL28.
In a further data set the test system is DU145. The experiment in a line: Cytotoxicity of spisulosine analogs, DU145 (after Berjeron et al). The note with it: DU145; methodology after Berjeron et al; NA=not active; read-out: Cytotoxicity IC50 DU145.
The next data set relates to 5637. Briefly: Cytotoxicity MTS, solid tumors, Bladder 5637. The note with it: 4-Parameter Curve Fit, NA = not active.
The test system of a further data set is HT-29. The experiment in a line: Cytotoxicity MTS, solid tumors, Colon HT-29. The note with it: 4-Parameter Curve Fit, NA = not active.
For data set [2], the system named is A549. Briefly: Cytotoxicity MTS, solid tumors, NSCL A549. As to conditions: 4-Parameter Curve Fit, NA = not active.
A further data set deals with PANC-1. The experiment in a line: Cytotoxicity MTS, solid tumors, Pancreas PANC-1. As to conditions: 4-Parameter Curve Fit, NA = not active.
The next data set has as its system FADU. Briefly: Cytotoxicity MTS, solid tumors, Pharynx FADU. As to conditions: 4-Parameter Curve Fit, NA = not active.
In a further data set the test system is PC-3. Briefly: Cytotoxicity MTS, solid tumors, Prostate PC-3. The note with it: 4-Parameter Curve Fit, NA = not active.
A further data set concerns DU-145. Briefly: Cytotoxicity MTS, solid tumors, Prostate DU-145. As to conditions: 4-Parameter Curve Fit, NA = not active.
The next data set relates to LNCAP. Briefly: Cytotoxicity MTS, solid tumors, Prostate LNCAP. The note with it: 4-Parameter Curve Fit, NA = not active.
Another data set deals with NCI-H187. The experiment in a line: Cytotoxicity MTS, solid tumors, SCL NCI-H187. As to conditions: 4-Parameter Curve Fit, NA = not active.
In the next data set the test system is Y-79. Briefly: Cytotoxicity MTS, solid tumors, Retinoblastoma Y-79. As to conditions: 4-Parameter Curve Fit, NA = not active.
In a further data set the test system is Mel-28. The experiment in a line: Cytotoxicity MTS, solid tumors, Melanoma Mel-28. The note with it: 4-Parameter Curve Fit, NA = not active.
The subject of another data set is SW 694. The experiment in a line: Cytotoxicity MTS, solid tumors, Fibrosarcoma SW 694. The note with it: 4-Parameter Curve Fit, NA = not active.
Another data set concerns CHSA. The experiment in a line: Cytotoxicity MTS, solid tumors, Chondrosarcoma CHSA. The note with it: 4-Parameter Curve Fit, NA = not active.
Another data set deals with OSA-FH. The experiment in a line: Cytotoxicity MTS, solid tumors, Osteosarcoma OSA-FH. As to conditions: 4-Parameter Curve Fit, NA = not active.
The subject of the next data set is MX-1. The experiment in a line: Cytotoxicity MTS, solid tumors, Breast MX-1. As to conditions: 4-Parameter Curve Fit, NA = not active.
In a further data set the test system is 786-O. Briefly: Cytotoxicity MTS, solid tumors, Renal 786-O. The note with it: 4-Parameter Curve Fit, NA = not active.
The subject of a further data set is Hut 78. The experiment in a line: Cytotoxicity MTS, leukemias/lymphomas, Hut 78. As to conditions: 4-Parameter Curve Fit, NA = not active, read-out: Cytotoxicity IC50 Lymphoma (Cutaneous T cell) Hut 78.

This passage reports IC50 results from patent US20040048834A1, “Antitumoral compounds” (priority 2000, published 2004).

By IC50 is commonly meant the concentration at which inhibition is half-maximal. In the case of `CCCCCCCCCCCCCCCCCC(O)C(C)N` (centres unmarked), the values for the IC50 with Molt 3 and in the data set with MC116 were 7.61 µM and 10.9 µM, respectively.

`CCCCCCCCCCCCCCC[C@@H](O)[C@@H](N)CF` [drawing 111]: the 50% inhibitory concentration (IC50) with P388 turned out to be 0.0329 µM; with A549 [1], 0.0329 µM; in the data set on HT29, 0.0329 µM; in the data set with MEL28 it was 0.329 µM; with DU145, 0.329 µM.

For `CCCCCCCCCCCCCCCC[C@@H](O)[C@H](C)N` [drawing 113], the IC50 in the data set with 5637 came out at 0.0472 µM; in the data set on HT-29 it was 0.0643 µM; with A549 [2] it was 0.0343 µM; in the data set on PANC-1 it was 0.167 µM; in the data set with FADU, 0.0103 µM; in the data set on PC-3, 0.086 µM. Besides, the IC50 amounted to 0.0739 µM in the data set with DU-145; 0.0444 µM with LNCAP; 0.163 µM in the data set on NCI-H187; 4.65 µM in the data set on Y-79; 7.21 µM in the data set with Mel-28; 6.49 µM in the data set with SW 694. Further, the IC50 in the data set on CHSA came out at 0.018 µM; with OSA-FH it was 0.183 µM.

For `CCCCCCCCCCCCCCCCC[C@@H](O)[C@H](C)N` [drawing 114], the IC50 in the data set with 5637 stood at 6.34 µM; with HT-29 it was 9.07 µM; with A549 [2], 9.79 µM; with PANC-1, 0.722 µM; in the data set on FADU, 0.0812 µM; in the data set with PC-3, 0.049 µM. Also, the IC50 with DU-145 came to 9.86 µM; with LNCAP, 7.69 µM; in the data set with NCI-H187 it was 7.17 µM; in the data set on SW 694, 10.4 µM; in the data set with CHSA it was 1.58 µM; with OSA-FH, 8.6 µM.

For `CCCCCCCCCCCCCC[C@@H](O)[C@H](C)N` [drawing 115], the IC50 came to 0.0365 µM in the data set with 5637; 0.264 µM with HT-29; 10.1 µM in the data set on A549 [2]; 0.0864 µM in the data set on PANC-1; 0.0784 µM with FADU; 0.379 µM with PC-3. Besides, the IC50 with DU-145 amounted to 0.201 µM; in the data set with LNCAP it was 0.0715 µM; in the data set with Mel-28 it was 10.3 µM; in the data set with SW 694, 10.1 µM; with CHSA, 9.65 µM.

For the compound `CCCCCCCCCCCCCCC[C@@H](O)[C@@H](N)CC` [drawing 116], the IC50 with 5637 was determined as 7.8 µM; in the data set with HT-29 it was 9.11 µM; in the data set on A549 [2], 10.3 µM; in the data set on PANC-1 it was 0.186 µM; in the data set with FADU it was 0.225 µM; in the data set on PC-3, 10.2 µM. The IC50 turned out to be 0.0755 µM with DU-145; 6.35 µM with LNCAP; 7.29 µM in the data set on NCI-H187; 9.51 µM in the data set on Y-79; 9.4 µM in the data set with Mel-28; 7.57 µM in the data set with SW 694. The IC50 with CHSA is 8.94 µM; in the data set with OSA-FH, 8.52 µM.

`CCCCCCCCCCCCCC[C@@H](O)[C@H](C)N` [drawing 117]: the 50% inhibitory concentration (IC50) in the data set with 5637 worked out at 3.26 µM; with A549 [2], 49 µM; in the data set on FADU, 19.6 µM.

As to `CCCCCCCCCCCCCCCC(=O)[C@H](C)N` [drawing 118], the IC50 in the data set on MX-1 was 2.84 µM; in the data set on 786-O, 0.162 µM; in the data set on NCI-H187 it was 3.55 µM; with Y-79, 12.1 µM.

Turning to `CCCCCCCCCCCCCCCCC(=O)[C@H](C)N` [drawing 119], the IC50 in the data set with 5637 was 29.9 µM; with MX-1, 14.9 µM; with OSA-FH, 14.9 µM.

Turning to `CCCCCCCCCCCCCCCCCC(=O)[C@H](C)N` [drawing 120], the values for the IC50 in the data set on A549 [2] and in the data set with FADU were 20.1 µM and 14.3 µM, respectively.

In the case of `CCCCCCCCCCCCCCCC(=O)[C@@H](N)CC` [drawing 121], the IC50 with 5637 is 1.58 µM; with MX-1, 1.72 µM; in the data set on FADU, 2.99 µM; in the data set with 786-O, 59.8 µM.

With `CCCCCCCCCCCCCCC(O)C(C)N` (centres unmarked) [drawing 126], the IC50 turned out to be 0.00983 µM in the data set on Molt 3, 8.81 µM in the data set on Hut 78 and 9.58 µM in the data set with MC116.

For `CCCCCCCCCCCCCCCC(O)C(N)CC` (centres unmarked) [drawing 127], the figures for the IC50 with Molt 3 and with Hut 78 were 0.0376 µM and 9.15 µM, respectively.

`CCCCCCCCCCCCCCC(O)C(C)N` (centres unmarked) [drawing 128]: in the data set on Molt 3, the IC50 was 26.1 µM.
